According to US20230021483A1, “[…] […] METHOD AND CLASSIFICATION OF PHARMACEUTICAL COMPONENTS BY USING TRANSCRIPTOMES” (National Institutes of Biomedical Innovation, Health and …, priority 2016, published 2023):

System: preferentially upregulated genes in LV, SP, LN
Test: Z-score-based differential gene expression analysis (adjuvant group- or adjuvant-associated genes, 40 module mapping, TargetMine annotation)
Format: in vivo, C57BL/6 mice
Settings: for Eif2ak2 1422005_at (Group G1, Modules 20) / G3bp2 1421323_a_at (Group G1, Modules 20) / Gm9706///Isg15 1431591_s_at (Group G1, Modules 20) / H2-T10///H2-T22///H2-T9 1449875_s_at (Group G1, Modules 20) / Ifih1 1426276_at (Group G1, Modules 20) / Ifit1 1450783_at (Group G1, Modules 20) / Ifit3 1449025_at (Group G1, Modules 20) / Irf7 1417244_a_at (Group G1, Modules 20) / Irgm1 1418825_at (Group G1, Modules 20) / Mndal 1426906_at (Group G1, Modules 20) / Pml 1448757_at (Group G1, Modules 20) / Pml 1456103_at (Group G1, Modules 20) / Rnf213 1455500_at (Group G1, Modules 20) / Rsad2 1436058_at (Group G1, Modules 20) / Shisa5 1423986_a_at (Group G1, Modules 20) / Shisa5 1437503_a_at (Group G1, Modules 20) / Stat1 1450033_a_at (Group G1, Modules 20) / Stat1 1450034_at (Group G1, Modules 20) / Tdrd7 1426716_at (Group G1, Modules 20) / Tor1aip2 1418115_s_at (Group G1, Modules 20) / Tor1aip2 1418116_at (Group G1, Modules 20) / Tor1aip2 1435526_at (Group G1, Modules 20) / Trim12a 1437432_a_at (Group G1, Modules 20) / Uba7 1426970_a_at (Group G1, Modules 20) / Adar 1425405_a_at (Group G1, Modules 20) / Adar 1434268_at (Group G1, Modules 20) / Ddx58 1436562_at (Group G1, Modules 20) / Ddx58 1456890_at (Group G1, Modules 20): IP, LV
Description: Each sample's FC value was converted into a z-score on a gene basis by using the entire data set for each organ. The Z-score of the triplicates of interest were summed for each adjuvant. For example, the three sample z-score in the LV sample following cdiGMP administration was summed on a gene-by-gene basis, after which the summed scores of >3 genes were selected as relatively preferentially expressed genes in the LV after cdiGMP administration. The following threshold was applied for selections. […] G2^LV: ALM_IP(z>1) & bCD(z>1) & ENDCN(z>1) & FCA(z>1). […] G4^LV: MALP2s(z>3). […] G2^SP: ENDCN_x2+ENDCN_x3(z>2) & ALM_IP(z>3) & bCD(z>3). […] G4^SP: ADX_ID_x2+ADX_ID_x3(z>2) & ADX_IP(z>3) & MALP2s(z>3). […] G2^LN: bCD(z>3) & FCA(z>3). […] G5^LN: K3(z>1.5) & K3SPG_x1+K3SPG_x2(z>1) & D35_x1+D35_x3(z>1). G6^LN: AddaVax(z>3).

[1] = liver (LV), gene group G1, module 20, individual mice x1-x3, route ID/IP/IN

K3: B class CpG ODN (ATCGACTCTCGAGCGTTCTC), TLR9 ligand (chemistry not given here)
Eif2ak2 1422005_at (Group G1, Modules 20) (sample x1): −0.6 | G3bp2 1421323_a_at (Group G1, Modules 20) (sample x1): −0.6 | Gm9706///Isg15 1431591_s_at (Group G1, Modules 20) (sample x1): −0.5 | H2-T10///H2-T22///H2-T9 1449875_s_at (Group G1, Modules 20) (sample x1): −0.2 | Ifih1 1426276_at (Group G1, Modules 20) (sample x1): −0.4 | Ifit1 1450783_at (Group G1, Modules 20) (sample x1): −0.5 | Ifit3 1449025_at (Group G1, Modules 20) (sample x1): −0.5 | Irf7 1417244_a_at (Group G1, Modules 20) (sample x1): −0.5 | Irgm1 1418825_at (Group G1, Modules 20) (sample x1): −0.5 | Mndal 1426906_at (Group G1, Modules 20) (sample x1): −0.5 | Pml 1448757_at (Group G1, Modules 20) (sample x1): −0.5 | Pml 1456103_at (Group G1, Modules 20) (sample x1): −0.5 | Rnf213 1455500_at (Group G1, Modules 20) (sample x1): −0.5 | Rsad2 1436058_at (Group G1, Modules 20) (sample x1): −0.5 | Shisa5 1423986_a_at (Group G1, Modules 20) (sample x1): −0.6 | Shisa5 1437503_a_at (Group G1, Modules 20) (sample x1): −0.5 | Stat1 1450033_a_at (Group G1, Modules 20) (sample x1): −0.6 | Stat1 1450034_at (Group G1, Modules 20) (sample x1): −0.5 | Tdrd7 1426716_at (Group G1, Modules 20) (sample x1): −0.2 | Tor1aip2 1418115_s_at (Group G1, Modules 20) (sample x1): −0.5 | Tor1aip2 1418116_at (Group G1, Modules 20) (sample x1): −0.4 | Tor1aip2 1435526_at (Group G1, Modules 20) (sample x1): −0.3 | Trim12a 1437432_a_at (Group G1, Modules 20) (sample x1): −0.5 | Uba7 1426970_a_at (Group G1, Modules 20) (sample x1): −0.5 | Adar 1425405_a_at (Group G1, Modules 20) (sample x2): −0.5 | Adar 1434268_at (Group G1, Modules 20) (sample x2): −0.8 | Ddx58 1436562_at (Group G1, Modules 20) (sample x2): −0.2 | Ddx58 1456890_at (Group G1, Modules 20) (sample x2): −0.3 | Eif2ak2 1422005_at (Group G1, Modules 20) (sample x2): −0.7 | G3bp2 1421323_a_at (Group G1, Modules 20) (sample x2): −0.4 | Gm9706///Isg15 1431591_s_at (Group G1, Modules 20) (sample x2): −0.5 | H2-T10///H2-T22///H2-T9 1449875_s_at (Group G1, Modules 20) (sample x2): −0.2 | Ifih1 1426276_at (Group G1, Modules 20) (sample x2): −0.3 | Ifit1 1450783_at (Group G1, Modules 20) (sample x2): −0.5 | Ifit3 1449025_at (Group G1, Modules 20) (sample x2): −0.5 | Irf7 1417244_a_at (Group G1, Modules 20) (sample x2): −0.6 | Irgm1 1418825_at (Group G1, Modules 20) (sample x2): −0.5 | Mndal 1426906_at (Group G1, Modules 20) (sample x2): −0.4 | Pml 1448757_at (Group G1, Modules 20) (sample x2): −0.3 | Pml 1456103_at (Group G1, Modules 20) (sample x2): −0.3 | Rnf213 1455500_at (Group G1, Modules 20) (sample x2): −0.4 | Rsad2 1436058_at (Group G1, Modules 20) (sample x2): −0.5 | Shisa5 1423986_a_at (Group G1, Modules 20) (sample x2): −0.5 | Shisa5 1437503_a_at (Group G1, Modules 20) (sample x2): −0.4 | Stat1 1450033_a_at (Group G1, Modules 20) (sample x2): −0.5 | Stat1 1450034_at (Group G1, Modules 20) (sample x2): −0.6 | Tdrd7 1426716_at (Group G1, Modules 20) (sample x2): −0.1 | Tor1aip2 1418115_s_at (Group G1, Modules 20) (sample x2): −0.2 | Tor1aip2 1418116_at (Group G1, Modules 20) (sample x2): −0 | Tor1aip2 1435526_at (Group G1, Modules 20) (sample x2): −0.2 | Trim12a 1437432_a_at (Group G1, Modules 20) (sample x2): −0.5 | Uba7 1426970_a_at (Group G1, Modules 20) (sample x2): −0.4 | Adar 1425405_a_at (Group G1, Modules 20) (sample x3): −0.2 | Adar 1434268_at (Group G1, Modules 20) (sample x3): −0.8 | Ddx58 1436562_at (Group G1, Modules 20) (sample x3): −0.4 | Ddx58 1456890_at (Group G1, Modules 20) (sample x3): −0.4 | Eif2ak2 1422005_at (Group G1, Modules 20) (sample x3): −0.5 | G3bp2 1421323_a_at (Group G1, Modules 20) (sample x3): −0.4 | Gm9706///Isg15 1431591_s_at (Group G1, Modules 20) (sample x3): −0.5 | H2-T10///H2-T22///H2-T9 1449875_s_at (Group G1, Modules 20) (sample x3): −0.4 | Ifih1 1426276_at (Group G1, Modules 20) (sample x3): −0.5 | Ifit1 1450783_at (Group G1, Modules 20) (sample x3): −0.5 | Ifit3 1449025_at (Group G1, Modules 20) (sample x3): −0.5 | Irf7 1417244_a_at (Group G1, Modules 20) (sample x3): −0.5 | Irgm1 1418825_at (Group G1, Modules 20) (sample x3): −0.6 | Mndal 1426906_at (Group G1, Modules 20) (sample x3): −0.4 | Pml 1448757_at (Group G1, Modules 20) (sample x3): −0.6 | Pml 1456103_at (Group G1, Modules 20) (sample x3): −0.6 | Rnf213 1455500_at (Group G1, Modules 20) (sample x3): −0.5 | Rsad2 1436058_at (Group G1, Modules 20) (sample x3): −0.5 | Shisa5 1423986_a_at (Group G1, Modules 20) (sample x3): −0.8 | Shisa5 1437503_a_at (Group G1, Modules 20) (sample x3): −0.6 | Stat1 1450033_a_at (Group G1, Modules 20) (sample x3): −0.5 | Stat1 1450034_at (Group G1, Modules 20) (sample x3): −0.6 | Tdrd7 1426716_at (Group G1, Modules 20) (sample x3): −0.3 | Tor1aip2 1418115_s_at (Group G1, Modules 20) (sample x3): −0.2 | Tor1aip2 1418116_at (Group G1, Modules 20) (sample x3): −0.2 | Tor1aip2 1435526_at (Group G1, Modules 20) (sample x3): −0.5 | Trim12a 1437432_a_at (Group G1, Modules 20) (sample x3): −0.5 | Uba7 1426970_a_at (Group G1, Modules 20) (sample x3): −0.3 | preferentially induced biological process relative to adjuvants targeting the same receptor (LN, z-scores and 40 module mapping): preferentially induced RNA biogenesis | Z score of gene expression, Adar (probe 1425405_a_at) [1]: −0.5 | Z score of gene expression, Adar (probe 1434268_at) [1]: −0.1 | Z score of gene expression, Ddx58 (probe 1436562_at) [1]: −0.5 | Z score of gene expression, Ddx58 (probe 1456890_at) [1]: −0.6 | Z score of gene expression, Eif2ak2 (probe 1422005_at) [1]: −0.5 | Z score of gene expression, G3bp2 (probe 1421323_a_at) [1]: −0.5 | Z score of gene expression, Gm9706///Isg15 (probe 1431591_s_at) [1]: −0.5 | Z score of gene expression, H2-T10///H2-T22///H2-T9 (probe 1449875_s_at) [1]: −0.7 | Z score of gene expression, Ifih1 (probe 1426276_at) [1]: −0.5 | Z score of gene expression, Ifit1 (probe 1449025_at) [1]: −0.5 | Z score of gene expression, Ifit1 (probe 1450783_at) [1]: −0.5 | Z score of gene expression, Irf7 (probe 1417244_a_at) [1]: −0.4 | Z score of gene expression, Irgm1 (probe 1418825_at) [1]: −0.5 | Z score of gene expression, Mndal (probe 1426906_at) [1]: −0.5 | Z score of gene expression, Pml (probe 1448757_at) [1]: −0.5 | Z score of gene expression, Pml (probe 1456103_at) [1]: −0.6 | Z score of gene expression, Rnf213 (probe 1455500_at) [1]: −0.5 | Z score of gene expression, Rsad2 (probe 1436058_at) [1]: −0.5 | Z score of gene expression, Shisa5 (probe 1423986_a_at) [1]: −0.5 | Z score of gene expression, Shisa5 (probe 1437503_a_at) [1]: −0.5 | Z score of gene expression, Stat1 (probe 1450033_a_at) [1]: −0.5 | Z score of gene expression, Stat1 (probe 1450034_at) [1]: −0.5 | Z score of gene expression, Tdrd7 (probe 1426716_at) [1]: −0.6 | Z score of gene expression, Tor1aip2 (probe 1418115_s_at) [1]: −0.1 | Z score of gene expression, Tor1aip2 (probe 1418116_at) [1]: −0.1 | Z score of gene expression, Tor1aip2 (probe 1435526_at) [1]: −0.1 | Z score of gene expression, Trim12a (probe 1437432_a_at) [1]: −0.4 | Z score of gene expression, Uba7 (probe 1426970_a_at) [1]: −0.4
